Data set [1] can be described thus: Clinical course of migraine/headache in chronic pain patients (Cases #1 and #2). The class given is in vivo, human.
For data set [2], the system named is mu-receptor subfamily of opioid cell membrane binding/transduction sites. The note with it: cited from earlier work.
Data set [3] in a line: Urinary parameter-normalized urine methadone concentration, nu.
Data set [4] in a line: Renal clearance / renal excretion of methadone from timed urine collections. The note with it: as a function of urine volume production rate; 12 control subjects.
The nature of data set [5]: Plasma methadone concentration, p, calculated from spot urine (urine methadone, pH and specific gravity). The note with it: patient one, Tables 3 and 4, barbiturate-containing compounds discontinued.
Data set [6] can be described thus: Plasma methadone concentration versus daily oral methadone dose (FIG. 6, 8300 urine samples from 150 patients). The following applies: human, 70 mg/day.

Where “and” joins values, the source holds several entries; their conditions need not be identical. Equal values may be shown once.

Turning to `CCC(=O)C(CC(C)N(C)C)(c1ccccc1)c1ccccc1` (centres unmarked) [methadone], the stress-related headaches entry in data set [1] (patient one, 130 mg per day) is “slowly decreasing in severity and frequency”. Also, in data set [1] (patient one, stabilized on 130 mg per day, plasma level above 135 ng/ml), the migraines result is reported as “ceased completely”. For the same molecule, the “migraine frequency and severity” value in data set [1] (patient two, gradual titration to 35 mg of methadone) was “slowly decayed in frequency and severity”. Further, the action at mu-receptor result in data set [2] was “potent, and nearly pure (no interfering metabolites), agonist”. The “urinary parameter-normalized urine methadone concentration, nu” value in data set [3] (Table 1, compliant patient, dose 60) is 7448 and 9473; in data set [3] (Table 3, patient one (prior barbiturate use), 1991, dose 50), 2924; in data set [3] (Table 3, patient one (prior barbiturate use), 1991, dose 65) it was 1367 and 911; in data set [3] (Table 3, patient one (prior barbiturate use), 1991, dose 80), 1070; in data set [3] (Table 4, patient one, barbiturates discontinued, 1992, dose 110), 6580 and 6703 and 10880 and 6025; in data set [3] (Table 4, patient one, barbiturates discontinued, 1992, dose 120), 8970 and 6778 and 8074 and 11966 and 6031. Moreover, the “urinary parameter-normalized urine methadone concentration, nu” value in data set [3] (Table 4, patient one, barbiturates discontinued, 1992, dose 130) is 7728 and 5944 and 5117. In addition, the “urinary parameter-normalized urine methadone concentration, nu, mean” value in data set [3] (Table 1, mean of 12 tests, dose 60-70) worked out at 7427; in data set [3] (Table 2, patient two, mean of 12 tests, dose 45), 17936; in data set [3] (Table 3, patient one, mean of 12 tests, dose 40-100) it was 1591; in data set [3] (Table 4, patient one, mean of 12 tests, dose 110-130), 7566; in data set [3] (Table 6, Case #4, mean, dose 120-140), 6874; in data set [3] (Table 7, Case #5, mean of 13 tests, dose 130), 14502. For the same molecule, the “Pred (flag: nu outside acceptable statistical range)” value in data set [3] (Table 6, Case #4, dose 140) was “High”; in data set [3] (Table 7, Case #5, dose 130), “LOW and HIGH”. Further, the “renal excretion rate during a typical day” value in data set [4] was “relatively constant”. In addition, the “plasma methadone levels over time” value in data set [5] is given as “increased in this patient over time”. Further, the concentration at 24 h in data set [6] worked out at 200 ng/mL.
With `Oc1ccc2c3c1O[C@H]1[C@@H](O)CC[C@@]4(O)[C@@H](C2)N(CC2CCC2)CC[C@]314` [nalbuphine], the control of pain entry in data set [1] (patient one, self-administered IM, before methadone) was “failure”.

The record behind these values is patent publication US6124136A, “Method of monitoring compliance with methadone treatment program” (U. D. Testing, Inc., priority 1993, dated 2000).
